Results reported in PubChem BioAssay (NCI).
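Assay format: 96-well plates, 48-hour exposure. At the TGI there is no net growth.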

System: P388/ADR leukemia
Assay: NCI tumour cell line growth inhibition, 48 h

`CO[C@@]12[C@H](COC(N)=O)C3=C(C(=O)C(C)=C(N)C3=O)N1C[C@@H]1N[C@@H]12` showed a TGI of 16 µM.
